Earlier results as cited in patent US6949259B1, “Solid preparations for oral use” (Kyorin Pharmaceutical Co., Ltd., priority 1999, dated 2005).

What was measured:
[1] = Nomura M. et al, Bioorg. Med. Chem. Lett., 9 (1999), 533-538
[2] = Nomura M. et al, Bioorg. Med. Chem. Lett., 9 (1999), 533-538; remark: listed apart in the source

COc1ccc(CC2SC(=O)NC2=O)cc1C(=O)NCc1ccc(C(F)(F)F)cc1 (racemic) [KRP-297, (±)-5-[(2,4-dioxothiazolidine-5-yl)methyl]-2-methoxy-N-[[4-(trifluoromethyl)phenyl]methyl]-benzamide]
lipid-lowering action [1]: lipid-lowering action
blood glucose-lowering action [2]: potent blood glucose-lowering action
